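All cell lines were grown in 96-well plates and treated with compound for 48 hours. GI50 marks 50% less growth.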 The source made the active and inactive calls. Cut-off read from the data, not from the text of the source: active = GI50 up to about 1.1 µM and inactive = higher.
What was measured:
Experiment in all cases: NCI tumour cell line growth inhibition, 48 h
NCI-H460 = test system: NCI-H460
UO-31 = test system: UO-31
M14 = test system: M14
NCI-H226 = test system: NCI-H226
SF-539 = test system: SF-539
SW-620 = test system: SW-620
TK-10 = test system: TK-10
OVCAR-4 = test system: OVCAR-4
A549 = test system: A549
CAKI-1 = test system: CAKI-1
SNB-75 = test system: SNB-75
HT-29 = test system: HT-29
ACHN = test system: ACHN
HCC 2998 = test system: HCC 2998
OVCAR-8 = test system: OVCAR-8
RPMI-8226 = test system: RPMI-8226
MOLT-4 = test system: MOLT-4
UACC-62 = test system: UACC-62

Measured: GI50

CCc1cccc(C)c1NC(=O)CC1C(=O)Nc2ccccc2[S+]1[O-] (configuration not stated)
inactive: NCI-H460 33.6 µM | UO-31 98.2 µM | M14 31.2 µM | NCI-H226 > 100 µM | SF-539 29.2 µM | SW-620 48.3 µM | TK-10 > 100 µM | OVCAR-4 28.3 µM | A549 39.1 µM | CAKI-1 53.6 µM | SNB-75 33.5 µM | HT-29 33.4 µM | ACHN 71.6 µM | HCC 2998 56.4 µM | OVCAR-8 46 µM | RPMI-8226 33 µM | MOLT-4 37.1 µM

COc1cc2c(cc1O)CN1CCC23C=C[C@@H](O)CC13 (some centres not stated)
inactive: NCI-H460 62.8 µM | UO-31 > 100 µM | M14 41 µM | NCI-H226 76.4 µM | SW-620 59.6 µM | TK-10 > 100 µM | UACC-62 > 100 µM | OVCAR-4 33.2 µM | A549 75.2 µM | CAKI-1 > 100 µM | SNB-75 59.4 µM | HT-29 47.5 µM | ACHN 57.5 µM | HCC 2998 56.9 µM | OVCAR-8 38.1 µM | RPMI-8226 > 100 µM | MOLT-4 45.5 µM

C/C(CC(=O)Nc1ccc(Cl)c(Cl)c1)=N/NC(=O)C[N+](C)(C)C
inactive: NCI-H460 65.2 µM | UO-31 > 100 µM | M14 > 100 µM | NCI-H226 > 100 µM | SF-539 > 100 µM | TK-10 > 100 µM | UACC-62 > 100 µM | OVCAR-4 > 100 µM | A549 > 100 µM | CAKI-1 > 100 µM | SNB-75 > 100 µM | HT-29 > 100 µM | ACHN > 100 µM | HCC 2998 > 100 µM | OVCAR-8 > 100 µM | RPMI-8226 25.8 µM | MOLT-4 > 100 µM

CC1=C(C(=O)CC(=O)C(=O)NC2C3CC4CC(C3)CC2C4)Sc2ccccc2N1 (configuration not stated)
inactive: NCI-H460 > 100 µM | UO-31 > 60.3 µM | M14 > 100 µM | SF-539 > 100 µM | SW-620 > 100 µM | TK-10 > 100 µM | UACC-62 > 100 µM | OVCAR-4 > 100 µM | A549 > 100 µM | CAKI-1 99.1 µM | SNB-75 > 100 µM | HT-29 > 100 µM | ACHN > 100 µM | HCC 2998 > 100 µM | OVCAR-8 > 100 µM | RPMI-8226 74.6 µM | MOLT-4 4.43 µM

COC(=O)C(CCCN1C(=O)c2ccccc2C1=O)C(=O)OC
inactive: NCI-H460 > 100 µM | UO-31 > 100 µM | M14 > 100 µM | NCI-H226 > 100 µM | SF-539 > 100 µM | SW-620 > 100 µM | TK-10 > 100 µM | UACC-62 > 100 µM | OVCAR-4 > 100 µM | A549 > 100 µM | CAKI-1 > 100 µM | SNB-75 > 100 µM | HT-29 > 100 µM | ACHN > 100 µM | HCC 2998 > 100 µM | OVCAR-8 > 100 µM | MOLT-4 > 100 µM

O=C1C(c2ccc([N+](=O)[O-])cc2)=[N+]([O-])c2ccccc21
inactive: NCI-H460 37 µM | UO-31 29.4 µM | M14 28.7 µM | NCI-H226 34.9 µM | SF-539 37.9 µM | SW-620 32.4 µM | TK-10 37.1 µM | UACC-62 19.2 µM | OVCAR-4 9.51 µM | A549 28 µM | CAKI-1 42.2 µM | SNB-75 30.6 µM | HT-29 37.6 µM | ACHN 16.8 µM | OVCAR-8 4.31 µM | RPMI-8226 19 µM | MOLT-4 31.5 µM

Cc1ccc(S(=O)(=O)OCC23CCC(CC2)C2CC23)cc1 (configuration not stated)
inactive: NCI-H460 42.4 µM | UO-31 34.4 µM | M14 92 µM | NCI-H226 61.2 µM | SW-620 87.1 µM | TK-10 > 100 µM | UACC-62 > 100 µM | OVCAR-4 46 µM | A549 57.4 µM | CAKI-1 49.8 µM | SNB-75 3.62 µM | HT-29 31.5 µM | ACHN 61.7 µM | HCC 2998 > 100 µM | OVCAR-8 59.3 µM | RPMI-8226 25.9 µM | MOLT-4 35.4 µM

O=[N+]([O-])c1ccc2nc(/C(=N/Nc3ccccc3)C(O)c3ccc(Cl)cc3Cl)c(O)nc2c1 (configuration not stated)
inactive: NCI-H460 > 100 µM | UO-31 78.9 µM | M14 > 100 µM | NCI-H226 > 100 µM | SF-539 > 100 µM | TK-10 > 100 µM | UACC-62 48.5 µM | OVCAR-4 > 100 µM | A549 > 100 µM | SNB-75 > 100 µM | HT-29 > 100 µM | ACHN > 100 µM | HCC 2998 > 100 µM | OVCAR-8 > 100 µM | RPMI-8226 52.4 µM | MOLT-4 84.5 µM

COC(=O)C1C=CCON2CCc3c(n(C)c4ccccc34)C12 (configuration not stated)
inactive: NCI-H460 > 100 µM | UO-31 > 100 µM | M14 > 100 µM | NCI-H226 > 100 µM | SF-539 > 100 µM | SW-620 > 100 µM | TK-10 > 100 µM | OVCAR-4 > 100 µM | A549 > 100 µM | CAKI-1 > 100 µM | SNB-75 88.1 µM | HT-29 > 100 µM | ACHN > 100 µM | HCC 2998 > 100 µM | RPMI-8226 > 100 µM | MOLT-4 > 100 µM

COc1cc(C2c3cc4c(cc3[C@@H](OCCN)[C@H]3COC(=O)C23)OCO4)cc(OC)c1O (some centres not stated)
active: NCI-H460 < 0.01 µM | M14 0.383 µM | NCI-H226 0.0873 µM | SF-539 0.105 µM | SW-620 0.179 µM | UACC-62 0.0843 µM | A549 0.0518 µM | CAKI-1 0.135 µM | SNB-75 0.238 µM | HT-29 0.7 µM | ACHN 0.181 µM | HCC 2998 0.671 µM | OVCAR-8 0.55 µM | MOLT-4 < 0.01 µM
inactive: UO-31 4.09 µM | TK-10 2.14 µM | OVCAR-4 2.05 µM

Cc1ccccc1NC(=O)c1cc2cc(/N=N/c3ccccc3C(=O)O)ccc2oc1=O
inactive: NCI-H460 21.1 µM | UO-31 20.6 µM | M14 16.7 µM | NCI-H226 20.8 µM | SF-539 18 µM | SW-620 27.4 µM | TK-10 48.2 µM | UACC-62 4.7 µM | A549 33.4 µM | SNB-75 11.5 µM | HT-29 15.2 µM | ACHN 33.3 µM | OVCAR-8 29.6 µM | RPMI-8226 15.9 µM | MOLT-4 18.7 µM

Cc1noc2cccc(OCc3ccccc3)c12
inactive: NCI-H460 > 100 µM | UO-31 15 µM | M14 92.5 µM | NCI-H226 46.5 µM | SF-539 > 100 µM | SW-620 > 100 µM | TK-10 47 µM | UACC-62 > 100 µM | OVCAR-4 82.8 µM | A549 44.1 µM | CAKI-1 38.1 µM | SNB-75 30.6 µM | HT-29 37.2 µM | ACHN 50.7 µM | OVCAR-8 67.1 µM | RPMI-8226 30.7 µM | MOLT-4 39.5 µM

Cc1nc2c(n1Cc1ccc(Cl)cc1)C(=O)c1ccccc1C2=O
inactive: NCI-H460 1.75 µM | UO-31 > 75 µM | M14 > 75 µM | NCI-H226 > 75 µM | SF-539 2.48 µM | TK-10 > 75 µM | UACC-62 3.36 µM | OVCAR-4 > 75 µM | A549 17.4 µM | SNB-75 19.9 µM | HT-29 4.08 µM | ACHN 27 µM | HCC 2998 > 75 µM | OVCAR-8 8.99 µM | MOLT-4 3.14 µM

CN(C)CCC(/C=C/c1ccccc1)=N\Nc1ccc(Cl)cc1
inactive: NCI-H460 2.1 µM | UO-31 1.71 µM | M14 3.18 µM | SF-539 2.25 µM | SW-620 3.87 µM | TK-10 2.89 µM | UACC-62 2.03 µM | OVCAR-4 5.21 µM | A549 2.52 µM | SNB-75 4.31 µM | HT-29 3.86 µM | ACHN 2.23 µM | HCC 2998 1.69 µM | OVCAR-8 2.98 µM | RPMI-8226 1.9 µM | MOLT-4 2.23 µM

CCCCCCCCCCCCCC(=O)OC1C(CO)OC(=O)C1O (configuration not stated)
inactive: NCI-H460 > 100 µM | UO-31 51.8 µM | M14 > 100 µM | SF-539 > 100 µM | SW-620 > 100 µM | TK-10 > 100 µM | UACC-62 > 100 µM | OVCAR-4 > 100 µM | A549 > 100 µM | CAKI-1 > 100 µM | SNB-75 > 100 µM | HT-29 > 100 µM | ACHN > 100 µM | HCC 2998 > 100 µM | OVCAR-8 > 100 µM | RPMI-8226 > 100 µM | MOLT-4 > 100 µM

CCCCOC(=O)NC(=O)c1cn(C2CCCCC2)c(=O)[nH]c1=O
inactive: NCI-H460 > 100 µM | UO-31 21.3 µM | M14 50.7 µM | NCI-H226 20.3 µM | SF-539 18.5 µM | SW-620 > 100 µM | TK-10 46.9 µM | UACC-62 47.2 µM | OVCAR-4 21.8 µM | A549 38.5 µM | CAKI-1 > 10 µM | HT-29 59.4 µM | ACHN 32.2 µM | HCC 2998 > 100 µM | OVCAR-8 42.9 µM | RPMI-8226 60.8 µM | MOLT-4 98.6 µM

O=C(O)C1=C(C(=O)Nc2ccc(NC(=O)C3=C(C(=O)O)C4C=CC3C4)cc2)C2C=CC1C2
inactive: NCI-H460 > 100 µM | UO-31 > 100 µM | M14 > 100 µM | SF-539 > 100 µM | SW-620 > 100 µM | TK-10 > 100 µM | UACC-62 > 100 µM | OVCAR-4 > 100 µM | A549 > 100 µM | CAKI-1 > 100 µM | SNB-75 > 100 µM | HT-29 > 100 µM | ACHN > 100 µM | HCC 2998 > 100 µM | OVCAR-8 > 100 µM | RPMI-8226 > 100 µM | MOLT-4 > 100 µM
